This is an account of results in patent publication US12692491B2, “Nucleic acid complexes for screening barcoded compounds” (Children's Medical Center Corporation, priority 2015, dated 2026).

The target of test [1] is T1, streptavidin (Streptomyces avidinii, UniProt P22629).
T1 construct: purchased Rockland
Put plainly: Biotin-streptavidin nanoswitch on-rate and off-rate experiments. It is filed as binding. As to the method:
This construct used biotinylated versions of two oligonucleotides (var 4 and var 8), which were used in 4× molar excess to the scaffold, while all other oligonucleotides were used in a 10× molar excess. […] The final DNA construct was then diluted 100× from its original concentration of ~16 nM (to 160 pM), and mixed in equal volumes with streptavidin (Rockland) at 6 nM nominal concentration to form the loops, yielding final nominal concentrations of ~80 pM and 3 nM, respectively.
The 25° C. experiment was performed at room temperature, the 4° C. experiment was performed in a cold room, and the 37° C. and 50° C. experiments were performed using a thermal cycler. […] Actual concentrations used to determine the on-rates were measured using spectrophotometry and a HABA assay to determine streptavidin activity.
Off-rate measurements were performed by forming looped construct as described above, and letting the solution sit for at least 24 hours to allow the system to reach equilibrium. […] The 4° C. condition was done in a refrigerator, the 25° C. sample was done in a water bath, and the 37° C. and 50° C. temperatures were done in a thermal cycler. To run all the samples on a single gel, the quenching times were determined relative to the predetermined gel running time.
We additionally used Eyring analysis to fit the temperature dependence of the kinetic rates: […]

The target in test [2] is T1, streptavidin. Put plainly: Desthiobiotin-streptavidin nanoswitch off-rate experiments. The test is classed as binding. How it is done: Desthiobiotin experiments were conducted in a similar manner as the biotin experiments with slight modifications. […] The off-rate of the desthiobiotin interaction is much faster than the typical 100 minute gel run time. Noting that once a loop opens in the gel, the reptation of the DNA prevents the loop from closing again, we ran samples for different amounts of time in the gel at 15 V/cm and 4° C. and quantified the fraction looped as a function of running time (Appendix A—Supplementary FIG. 5). In addition to allowing the determination of the desthiobiotin-streptavidin off rate, this gel also allowed us to determine the minimum amount of time required to achieve separation of the looped and unlooped bands in the gel. This enabled the use of the standard quenching technique for measuring desthiobiotin off-rates as described in the previous section; these gels were run at 15 V/cm for 10 minutes in pre-chilled electrophoresis buffer.

The structures appear in SMILES notation.

T1 sequence (P22629 25-183): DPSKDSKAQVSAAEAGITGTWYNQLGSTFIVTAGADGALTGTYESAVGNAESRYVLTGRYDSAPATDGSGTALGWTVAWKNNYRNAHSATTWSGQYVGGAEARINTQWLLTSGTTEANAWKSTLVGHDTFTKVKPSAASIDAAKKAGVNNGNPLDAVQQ

Turning to `O=C(O)CCCC[C@@H]1SC[C@@H]2NC(=O)N[C@@H]21` [biotin], on streptavidin [1] (150 mM salt, room temperature), the on-rate is reported as 4.0±0.7×10^6 M^−1s^−1. The “equilibrium enthalpy change ΔH” value at streptavidin [1] (calculated from on-rate and off-rate measurements) was 26.01 ± 0.05 kcal/mol. Moreover, on streptavidin [1] (physiological salt conditions and 25° C.), the dissociation time came to 9.7 ± 0.4 days.
With `C[C@@H]1NC(=O)N[C@@H]1CCCCCC(=O)O` [desthiobiotin], the off-rate of streptavidin-desthiobiotin at streptavidin [2] (4° C.) worked out at 35.3 ± 7.5 min; on streptavidin [2] (room temperature) it was 8.6 ± 1.2 min.
